According to ChEMBL document CHEMBL4393711, “Discovery and synthesis of novel indole derivatives-containing 3-methylenedihydrofuran-2(3H)-one as irreversible LSD1 inhibitors” (Eur J Med Chem, 2019):

Target: T1, Lysine-specific histone demethylase 1A (Homo sapiens, UniProt O60341)
Assay: Inhibition of recombinant LSD1 (unknown origin) (catalytic domain 157 to 852 residues) expressed in Escherichia coli BL21 using H3K4me1 as substrate incubated for 1 hr by horse-radish peroxidase/amplex red-based fluorescence method
Conditions: not given

Row | Structure (SMILES) | IC50
1 | CC(=O)c1cn(Cc2ccc(F)cc2)c2ccc(Cl)cc12 | > 10 µM
2 | O=C(/C=C/c1ccco1)c1cn(Cc2ccc(F)cc2)c2ccc(Cl)cc12 | > 10 µM
3 | C=C1C(=O)OCC1C(O)c1cn(Cc2ccc(Cl)cc2)c2cccc(OC)c12 (stereo unspecified) | > 10 µM
4 | C=C1C(=O)OCC1C(O)c1cn(Cc2ncccn2)c2ccc(Cl)cc12 (stereo unspecified) | > 10 µM
5 | C=C1C(=O)OCC1C(O)c1cn(Cc2c(C)noc2C)c2ccc(Cl)cc12 (stereo unspecified) | > 10 µM
6 | C=C1C(=O)OCC1C(O)c1cn(Cc2ccc(Cl)cc2)c2cccc(Cl)c12 (stereo unspecified) | > 10 µM
7 | C=C1C(=O)OCC1C(O)c1cn(Cc2nc(C)c3ccccc3n2)c2ccc(Cl)cc12 (stereo unspecified) | > 10 µM
8 | C=C1C(=O)OCC1C(O)c1cn(Cc2ccncc2)c2ccc(Cl)cc12 (stereo unspecified) | > 10 µM
9 | O/N=C(\c1ccccc1)c1cn(Cc2ccc(F)cc2)c2ccc(Cl)cc12 | > 10 µM
10 | O=C(c1ccc(F)cc1)c1cn(Cc2ccc(F)cc2)c2ccc(Cl)cc12 | > 10 µM
11 | C=C1C(=O)OCC1C(O)c1cn(Cc2csc(N)n2)c2ccc(Cl)cc12 (stereo unspecified) | > 10 µM
12 | C=C1C(=O)OCC1C(O)c1cn(Cc2ccc(Cl)cc2)c2ccc(OC)cc12 (stereo unspecified) | > 10 µM
13 | C=C1C(=O)OCC1C(O)c1cn(C(=O)c2cccnc2Cl)c2ccc(Cl)cc12 (stereo unspecified) | > 10 µM
14 | C=C1C(=O)OCC1C(O)c1cn(C(=O)/C=C/c2ccccc2)c2ccc(Cl)cc12 (stereo unspecified) | > 10 µM
15 | C=C1C(=O)OCC1C(O)c1cn(Cc2nc3ccccc3[nH]2)c2ccc(Cl)cc12 (stereo unspecified) | > 10 µM
16 | C=C1C(=O)OCC1C(O)c1cn(Cc2ccc(Cl)cc2)c2c(Cl)cccc12 (stereo unspecified) | > 10 µM
17 | C=C1C(=O)OCC1C(O)c1cn(Cc2ccc(Cl)cc2)c2c(OC)cccc12 (stereo unspecified) | > 10 µM
18 | O=C(c1ccncc1)c1cn(Cc2ccc(F)cc2)c2ccc(Cl)cc12 | > 10 µM
19 | OC(c1ccccc1)c1cn(Cc2ccc(F)cc2)c2ccc(Cl)cc12 (stereo unspecified) | > 10 µM
20 | C=C1C(=O)OCC1C(O)c1cn(Cc2ccc(Cl)cc2)c2ccc(Cl)cc12 (stereo unspecified) | > 10 µM
21 | O=C(c1cn(Cc2ccc(F)cc2)c2ccc(Cl)cc12)C1CC1 | > 10 µM

Row | Structure (SMILES) | IC50
22 | C=C1C(=O)OCC1C(O)c1cn(CC2CC2)c2ccc(Cl)cc12 (stereo unspecified) | > 10 µM
23 | C=C1C(=O)OCC1C(O)c1cn(Cc2ccc(Cl)s2)c2ccc(Cl)cc12 (stereo unspecified) | > 10 µM
24 | C=C1C(=O)OCC1C(O)c1cn(Cc2nc3ccccc3s2)c2ccc(Cl)cc12 (stereo unspecified) | > 10 µM
25 | O=C(c1ccnc(Cl)c1)c1cn(Cc2ccc(F)cc2)c2ccc(Cl)cc12 | > 10 µM
26 | C=C1C(=O)OCC1C(O)c1cn(Cc2ccc(Cl)cn2)c2ccc(Cl)cc12 (stereo unspecified) | > 10 µM
27 | O=C(/C=C/c1cccs1)c1cn(Cc2ccc(F)cc2)c2ccc(Cl)cc12 | > 10 µM
28 | C=C1C(=O)OCC1C(O)c1cn(Cc2cnc(Cl)s2)c2ccc(Cl)cc12 (stereo unspecified) | > 10 µM
29 | O=C(c1ccccc1)c1cn(Cc2ccc(F)cc2)c2ccc(Cl)cc12 | > 10 µM
30 | O=C(c1ccco1)c1cn(Cc2ccc(F)cc2)c2ccc(Cl)cc12 | > 10 µM
31 | Cc1ccc(C(=O)c2cn(Cc3ccc(F)cc3)c3ccc(Cl)cc23)cc1 | > 10 µM
32 | C=C1C(=O)OCC1C(O)c1cn(Cc2cncc(C)c2)c2ccc(Cl)cc12 (stereo unspecified) | > 10 µM
33 | C=C1C(=O)OCC1C(O)c1cn(C(=O)c2sccc2C)c2ccc(Cl)cc12 (stereo unspecified) | > 10 µM
34 | C=C1C(=O)OCC1C(O)c1cn(C(=O)C2CC2)c2ccc(Cl)cc12 (stereo unspecified) | > 10 µM
35 | C=C1C(=O)OCC1C(O)c1cn(Cc2ccc(Cl)cc2)c2cc(OC)ccc12 (stereo unspecified) | > 10 µM
36 | C=C1C(=O)OCC1C(O)c1cn(Cc2ccc(Cl)cc2)c2cc(Cl)ccc12 (stereo unspecified) | > 10 µM
37 | C=C1C(=O)OCC1C(O)c1cn(Cc2nc3ccccc3o2)c2ccc(Cl)cc12 (stereo unspecified) | > 10 µM
38 | C=C1C(=O)OCC1C(O)c1cn(Cc2ccc(Cl)cc2)c2ccc(F)cc12 (stereo unspecified) | > 10 µM
39 | C=C1C(=O)OCC1C(O)c1cn(C(=O)c2ccco2)c2ccc(Cl)cc12 (stereo unspecified) | > 10 µM
40 | CC1=CCSC1C(=O)c1cn(Cc2ccc(F)cc2)c2ccc(Cl)cc12 (stereo unspecified) | > 10 µM
41 | C=C1C(=O)OCC1C(O)c1cn(C(=O)c2c(C)noc2C)c2ccc(Cl)cc12 (stereo unspecified) | > 10 µM

Test system: THP-1
Assay: Antiproliferative activity against human THP1 cells assessed as reduction in cell viability incubated for 5 days by MTT assay
Conditions: THP-1, 120 h

Row | Structure (SMILES) | IC50
42 | C=C1C(=O)OCC1C(O)c1cn(Cc2ccc(F)cc2)c2ccc(Cl)cc12 (stereo unspecified) | 1.2 µM

Test system: THP-1
Assay: Inhibition of colony formation in human THP1 cells incubated for 2 weeks by microscopic analysis
Assay type: functional, cell-based
Conditions: not given

Row | Structure (SMILES) | inhibition
43 | C=C1C(=O)OCC1C(O)c1cn(Cc2ccc(F)cc2)c2ccc(Cl)cc12 (stereo unspecified) | Dose-dependent effect
44 | c1ccc([C@@H]2C[C@H]2NC2CCNCC2)cc1 | Dose-dependent effect

Test system: THP-1
Assay: Induction of cellular morphology change in human THP1 cells assessed as blurred cell membrane boundaries with chromatin shrinkage incubated for 3 days by hematoxylin and eosin staining based microscopic analysis
Assay type: functional
Conditions: not given

Row | Structure (SMILES) | Activity
45 | C=C1C(=O)OCC1C(O)c1cn(Cc2ccc(F)cc2)c2ccc(Cl)cc12 (stereo unspecified) | Dose-dependent effect
46 | c1ccc([C@@H]2C[C@H]2NC2CCNCC2)cc1 | Dose-dependent effect

Target: T1, Lysine-specific histone demethylase 1A
Conditions: not given

Row | Structure (SMILES) | Ka
47 | c1ccc([C@@H]2C[C@H]2NC2CCNCC2)cc1 | 2.6 ×10³ /M.s

Target: T1, Lysine-specific histone demethylase 1A
Conditions: not given
Remark: another data set of the same source

Row | Structure (SMILES) | Kdiss
48 | c1ccc([C@@H]2C[C@H]2NC2CCNCC2)cc1 | 1.11 ×10⁻¹ /s

Target: T1, Lysine-specific histone demethylase 1A
Conditions: not given
Remark: another data set of the same source

Row | Structure (SMILES) | ΔTm
49 | c1ccc([C@@H]2C[C@H]2NC2CCNCC2)cc1 | 2.21 °C

Target: T1, Lysine-specific histone demethylase 1A
Conditions: not given
Remark: another data set of the same source

Row | Structure (SMILES) | ΔTm
50 | c1ccc([C@@H]2C[C@H]2NC2CCNCC2)cc1 | 4.28 °C

Target: T1, Lysine-specific histone demethylase 1A
Conditions: not given
Remark: another data set of the same source

Row | Structure (SMILES) | ΔTm
51 | c1ccc([C@@H]2C[C@H]2NC2CCNCC2)cc1 | 8.37 °C
